Reference: US20150065436A1, “INHIBITING INTERACTION BETWEEN HIF-1ALPHA AND p300/CBP WITH HYDROGEN BOND SURROGATE-BASED HELICES” (UNIVERSITY OF SOUTHERN CALIFORNIA, priority 2013, published 2015)

Columns and labels:
[1] = target: T1, p300-CH1 (Homo sapiens, UniProt Q09472); test: Tryptophan fluorescence binding assay; conditions: for Kd: 15N-labeled p300 CH1 domain, Trp403 fluorescence, read-out: dissociation constant, Kd
T1 construct: human p300 CH1 domain (amino acid residues 323-423); GST (cleaved yes); made in house; host or cells: E. coli BL21 (DE3)
From the text: The DNA sequence of human p300 CH1 domain ([…]) was designed as an insert and subcloned into a pUC57 plasmid by Genscript, Inc. After transformation of the plasmid in JM109 bacteria (Promega), the gene sequence was subcloned into BamHI and EcoRI restriction sites of pGEX-4T-2 expression vector (Amersham). The pGEX 4T-2-p300 fusion vector was transformed into BL21 (DE3)-competent E. coli (Novagen) in M9 minimal media with ^15NH4Cl as the main nitrogen source. Protein production was induced with 1 mM IPTG at O.D. 600 of 1 for 16 hours at 15° C. Production of the desired p300-CH1-GST fusion product was verified by SDS-PAGE. Bacteria were harvested and resuspended in the lysis buffer with 20 mM Phosphate buffer (Research Products International, Corp.), 100 μM DTT (Fisher), 100 μM ZnSO4 (Sigma), 0.5% TritonX 100 (Sigma), […] Pepstatin A (Research Products International, Corp.), […] Leupeptin A (Research Products International, Corp.), 500 μM PMSF (Sigma), and 0.5% glycerol at pH 8.0. Pellets were lysed by sonication and centrifuged at 4° C., 20,000 rpm, for 20 minutes. Fusion protein was collected from the bacterial supernatant and purified by affinity chromatography using glutathione Sepharose 4B beads (Amersham) prepared according to the manufacturer's directions. GST-tag was cleaved by thrombin and protein was eluted from resin. […] Spectra were recorded on a QuantaMaster 40 spectrofluorometer (Photon Technology International) in a 10 mm quartz fluorometer cell at 25° C. with 4 nm excitation and 4 nm emission slit widths from 200 to 400 nm at intervals of 1 nm/s. Samples were excited at 295 nm and fluorescence emission was measured from 200-400 nm and recorded at 335 nm. Peptide stock solutions were prepared in DMSO. Aliquots containing 1 μL DMSO stocks were added to 400 μL of 1 μM p300-CH1 in 50 mM Tris and 100 mM NaCl (pH 8.0). After each addition, the sample was allowed to equilibrate for 5 minutes before UV analysis. Background absorbance and sample dilution effects were corrected by titrating DMSO into p300-CH1 in an analogous manner. Final fluorescence is reported as the absolute value of [(F1-F0)/F1]*100, where F1 is the final fluorescence upon titration and F0 is the fluorescence of the blank DMSO titration. EC50 values for each peptide were determined by fitting the experimental data to a sigmoidal dose-response nonlinear regression model on GraphPad Prism 5.0, and the dissociation constants, KD, were obtained from equation (1) […] The affinity of peptides for the ^15N-labeled p300 CH1 domain was evaluated using tryptophan fluorescence spectroscopy. […] The binding affinity of HIF-1αC-TAD to CH1 in this assay is consistent with that obtained from a fluorescence polarization assay using fluorescein-labeled HIF-1αC-TAD (FIG. 11 and FIG. 12) and those using isothermal titration microcalorimetry.

[2] = tested on: HeLa cells; test: MTT cell viability assay; format: cell-based, human; conditions: 1 to 100 μM, 24 hours
Procedure: HeLa cells were plated in a 96-well plate at a density of 6,000 cells/well and allowed to form a monolayer before adding the compounds. […] After 3 hours of incubation, the media was removed and purple crystals were dissolved in 100 μL of dimethyl sulfoxide (DMSO). The absorbance was measured at 570 nm with a correction at 690 nm in order to quantify the amount of formed purple formazan. All experiments were performed in quadruplicate.
HBS 1 is an efficient modulator of contacts between HIF-1α and p300/CBP. Known inhibitors of this interaction typically function allosterically, by inducing unfolding of p300/CBP through abstraction of zinc ions. This could lead to non-specific abstraction of metal ions from other biomolecules (Block et al., “Direct Inhibition of Hypoxia-Inducible Transcription Factor Complex With Designed Dimeric Epidithiodiketopiperazine,” J. Am. Chem. Soc. 131(50):18078-88 (2009), which is hereby incorporated by reference in its entirety). It was predicted that the HIF-1α mimetics should manifest their function in a more specific manner, and should not be generally cytotoxic. Cell viability assays confirm this hypothesis. […] Thus, HBS 2 may not just be a straightforward lower affinity analog of HBS 1 as designed.

[3] = tested on: LOX; test: Real-time qRT-PCR of LOX expression in hypoxic HeLa cells; format: cell-based, human; conditions: hypoxia
[4] = tested on: 786-O renal cell carcinoma tumors
Procedure: Mice (n=6) were inoculated with 786-O cells (2×10^6 cells) into the right flank and allowed to grow tumors for 21 days. […] In parallel, a control group (n=6) received injections of PBS. Tumor sizes were measured on Days 2, 3, 4, 6, 8, 11, 13, 16, 20, 25, 28, and 33. […] At a conclusion of the study, mice were injected intraperitoneally with the near-infrared dye IR-783 contrast agent and the tumors were imaged using Xenogen IVIS 200 small animal imager.
The CrTac:NCr-Foxn1^nu mouse (Taconic, Inc.) was used for efficacy studies. […] Measurable tumors (˜100 mm^3) grew in as little as 2-3 weeks after the inoculation of 2×10^6 cells into the flank of the mice. […] Tumor sizes were measured in accordance with literature recommendations.

[5] = tested on: VEGF protein; test: ELISA of secreted VEGF protein levels; format: cell-based, human; conditions: HeLa cells, 1 μM to 10 μM, DFO 300 μM
Procedure: The ability of HBS 1 and HBS 2 to inhibit hypoxia-induced transcription of target genes (VEGFA, SLC2A1/GLUT-1, and LOX) was evaluated employing real-time quantitative RT-PCR (qRT-PCR) assays. The data from the qRT-PCR experiments are presented in FIGS. 17A-D. HBS 1 reduced expression levels of VEGF by 50% at 10 μM and greater than 60% at 50 μM showing marked dose dependence. […] Next, it was determined whether this inhibition could be observed for other therapeutically relevant hypoxia-inducible genes. […] To rule out the possibility that the compounds are only efficacious under DFO mimicked hypoxia, the efficacies of the HBS peptides in downregulating VEGF gene expression were compared under two different hypoxia mimetic conditions: DFO and prolonged incubation in an anaerobic pouch. […] Next, the effect of HBS 1 treatment on the levels of secreted VEGF protein was assessed.

[6] = at conclusion of study, IR-783 imaging

T1 sequence (Q09472 323-423): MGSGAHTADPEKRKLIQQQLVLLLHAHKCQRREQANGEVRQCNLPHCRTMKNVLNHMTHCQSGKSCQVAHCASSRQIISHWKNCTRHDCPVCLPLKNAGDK

| SMILES | Kd [1] [µM] | binding affinity relative to HBS 1 ([1]; CH1 domain, compared with HBS 1) | cytotoxicity [2] | activity on LOX expression ([3]; concentration not given) | increase in binding affinity by stabilization of the peptide conformation ([1]; HBS 1 versus unconstrained peptide 3) [fold] | median tumor volume reduction compared to control group ([4]; 13 mg/kg parenterally, 5 injections, 786-O xenograft) [%] | median tumor volume ([4]; 13 mg/kg, 786-O xenograft, volumes measured throughout the study) [mm^3] | NIR signal (IR-783) from the main tumor [4, 6] | NIR signal (IR-783) in lymph nodes, brain or other organs (metastasis) [4, 6] | downregulation of LOX expression ([3]; 10 μM (first of two doses)) [%] | downregulation of LOX expression ([3]; 50 μM (second of two doses)) [%] | secreted VEGF protein levels [5] |
| --- | --- | --- | --- | --- | --- | --- | --- | --- | --- | --- | --- | --- |
| CC(C)C[C@@H]1NC(=O)[C@H](CCC(=O)O)NC(=O)CCC=CCN([C@@H](C)C(=O)N[C@@H](CCCNC(=N)N)C(=O)N[C@@H](C)C(=O)N[C@@H](C)C(=O)N[C@@H](CC(=O)O)C(=O)N[C@@H](CCC(N)=O)C(N)=O)C1=O [HBS 2, XELA*RAADQ-NH2] | 2.82 ± 0.14 | four-fold weaker | higher level of cytotoxicity than HBS 1 | no activity |  |  |  |  |  |  |  |  |
| CC(C)C[C@H](NC(=O)[C@H](C)NC(=O)[C@H](CCCNC(=N)N)NC(=O)[C@H](C)N1CC=CCCC(=O)N[C@@H](CCC(=O)O)C(=O)N[C@@H](CC(C)C)C1=O)C(=O)N[C@@H](CC(=O)O)C(=O)N[C@@H](CCC(N)=O)C(N)=O [HBS 1, XELA*RALDQ-NH2] | 0.69 ± 0.025 |  | essentially non-cytotoxic |  | 9 | 53 | 138 | significantly reduced signal | no detectable NIR signal | 55 | 70 | downregulates VEGF protein levels in HeLa cells in a dose-dependent manner |
